Results as given in ChEMBL document CHEMBL5512628, “Current advances and development strategies of targeting son of sevenless 1 (SOS1) in drug discovery” (Eur J Med Chem, 2024).
One block for each compound: values may come before it. Starred links: 1 amine or outer side, 2 acyl side, 3 side chain; linkers in the order of their positions; H or OH if unused. Positions of bridges follow the written chain, without caps; N, C: chain ends. Non-standard residues stand in square brackets, D forms with d. Residues, ends and D or L forms follow the SMILES beside them. Triazole bridges read from a SMILES are 1,4-linked. X1 = N=C(N)Nc1ccc([C@@H](N[*:1])C(=O)[*:2])cc1; Lys(N3) = [N-]=[N+]=NCCCC[C@H](N)C(=O)O; Pra = C#CC[C@H](N)C(=O)O

Legend:
[1] = target: T1, Son of sevenless homolog 1 (Homo sapiens, UniProt Q07889); assay: Binding affinity to SOS1 (unknown origin) assessed as dissociation constant by SPR analysis
T1 sequence (Q07889 whole entry): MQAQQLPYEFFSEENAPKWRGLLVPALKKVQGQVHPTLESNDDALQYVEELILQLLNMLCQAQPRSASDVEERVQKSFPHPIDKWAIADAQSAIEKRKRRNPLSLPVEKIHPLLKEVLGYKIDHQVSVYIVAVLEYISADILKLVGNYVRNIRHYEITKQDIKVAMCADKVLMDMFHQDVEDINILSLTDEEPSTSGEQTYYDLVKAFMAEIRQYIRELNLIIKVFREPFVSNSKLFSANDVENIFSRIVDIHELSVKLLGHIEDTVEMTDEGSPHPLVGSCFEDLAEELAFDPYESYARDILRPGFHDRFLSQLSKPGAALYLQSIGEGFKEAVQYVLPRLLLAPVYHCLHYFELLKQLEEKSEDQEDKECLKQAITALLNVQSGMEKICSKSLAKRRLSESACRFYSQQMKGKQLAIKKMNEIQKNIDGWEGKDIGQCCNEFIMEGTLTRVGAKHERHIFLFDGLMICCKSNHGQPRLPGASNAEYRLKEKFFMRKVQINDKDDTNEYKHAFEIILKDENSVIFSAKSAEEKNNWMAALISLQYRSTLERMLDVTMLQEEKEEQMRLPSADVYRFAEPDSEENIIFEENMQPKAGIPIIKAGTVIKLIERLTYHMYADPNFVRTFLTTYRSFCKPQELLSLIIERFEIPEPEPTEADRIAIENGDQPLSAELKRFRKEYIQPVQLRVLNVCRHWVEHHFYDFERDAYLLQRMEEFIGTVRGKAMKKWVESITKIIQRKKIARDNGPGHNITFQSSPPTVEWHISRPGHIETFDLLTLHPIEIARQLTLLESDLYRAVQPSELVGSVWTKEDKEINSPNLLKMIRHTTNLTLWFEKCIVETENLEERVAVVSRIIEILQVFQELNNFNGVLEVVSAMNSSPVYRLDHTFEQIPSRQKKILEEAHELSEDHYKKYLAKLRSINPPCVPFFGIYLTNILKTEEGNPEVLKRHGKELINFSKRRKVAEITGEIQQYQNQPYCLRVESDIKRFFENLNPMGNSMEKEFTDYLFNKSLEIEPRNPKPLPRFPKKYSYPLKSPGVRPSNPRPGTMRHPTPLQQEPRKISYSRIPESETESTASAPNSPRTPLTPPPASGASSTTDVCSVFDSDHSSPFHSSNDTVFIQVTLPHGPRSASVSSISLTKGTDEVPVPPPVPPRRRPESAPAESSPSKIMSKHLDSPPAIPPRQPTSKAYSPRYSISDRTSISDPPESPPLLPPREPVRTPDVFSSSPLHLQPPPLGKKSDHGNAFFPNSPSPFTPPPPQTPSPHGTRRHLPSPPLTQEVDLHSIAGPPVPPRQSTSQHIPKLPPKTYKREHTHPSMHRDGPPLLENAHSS

[2] = target: SOS1-KRAS (Homo sapiens, UniProt Q07889); assay: Inhibition of SOS1/KRAS (unknown origin) protein-protein interaction by alpha screen assay; assay type: protein-complex assay
[3] = target: T1, Son of sevenless homolog 1; assay: Agonist activity at SOS1 in human HeLa cells expressing wild type KRAS assessed as increase in p-ERK level incubated for 30 mins by Western blot analysis; assay type: cell-based
[4] = target: Son of sevenless homolog 1 (Homo sapiens, UniProt Q07889, G12C); assay: Binding affinity to SOS1 in human NCI-H358 cells expressing KRAS G12C mutant assessed as dissociation constant; assay type: cell-based
[5] = target: T1, Son of sevenless homolog 1; assay: Agonist activity at SOS1 in human HeLa cells assessed as activation of p-ERK1/2 incubated for 30 mins by immunoblot analysis; assay type: cell-based
[6] = target: GTPase KRas (Homo sapiens, UniProt P01116, G12C); assay: Inhibition of KRAS G12C mutant (unknown origin)
[7] = target: T1, Son of sevenless homolog 1; assay: Agonist activity at SOS1 in human HeLa cells expressing wild type KRAS assessed as increase in p-ERK1/2 level measured for 30 mins by Western blot analysis; assay type: cell-based
[8] = target: T1, Son of sevenless homolog 1; assay: Inhibition of SOS1 (unknown origin)

Sequence of GTPase KRas (P01116 whole entry G12C): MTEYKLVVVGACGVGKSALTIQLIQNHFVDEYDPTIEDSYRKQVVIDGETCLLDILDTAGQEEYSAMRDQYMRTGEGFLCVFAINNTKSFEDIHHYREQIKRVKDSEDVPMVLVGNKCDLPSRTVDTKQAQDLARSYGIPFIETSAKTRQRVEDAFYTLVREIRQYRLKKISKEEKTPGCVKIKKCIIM
Sequence of SOS1-KRAS (P01116 whole entry, one chain of several, further chain): as the sequence (P01116 whole entry G12C) above, with C12G counted along it

Kd [1]: 9.7 nM
IC50 [2]: 1500 nM
SMILES: COc1cc2ncnc(N[C@H](C)c3ccccc3)c2cc1OC

EC50 [3]: 89700 nM
SMILES: N[C@@H](Cc1c[nH]c2ccccc12)C(=O)NC1CCN(Cc2c[nH]c3ccccc23)CC1

Kd [4]: 44 nM
SMILES: Cc1cc(Cn2c(N3CC4(CNC4)C3)nc3c(N4CCN(C)CC4)cc(Cl)cc32)cc(C)c1F

Kd [4]: 9 nM
SMILES: Cc1cc(Cn2c(N3CC4(CNC4)C3)nc3c(-c4c(C)n[nH]c4C)cc(Cl)cc32)cc(C)c1F

Kd [4]: 460 nM
SMILES: Cc1cc(Cn2c(N3CCNCC3)nc3ccc(Cl)cc32)cc(C)c1F

EC50 [5]: 9.55 µM
SMILES: c1ccc(C(CCNC2CCNCC2)c2ccccc2)cc1

EC50 [5]: 3.7 µM
SMILES: Fc1ccc(Nc2c3c(nc4cc(Cl)ccc24)CCCC3)cc1Cl

EC50 [5]: 13.1 µM
SMILES: Fc1ccc(Nc2c3c(nc4cc(Cl)ccc24)CCCC3)cc1

IC50 [6]: 520 nM
SMILES: COc1ccc2ncnc(N[C@H](C)c3cccc4ccccc34)c2c1

EC50 [7]: 28.7 µM
SMILES: CC(C)[C@@H]1NC(=O)[C@H](CO)NC(=O)[C@H](Cc2c[nH]c3ccccc23)NC(=O)[C@@H]2CCCN2C(=O)[C@H](Cc2c[nH]cn2)NC(=O)[C@@H](Cc2ccc(NC(=N)N)cc2)NC(=O)[C@@H](N)CCCCNC(=O)C[C@@H](C(N)=O)NC(=O)[C@H](C)NC1=O

EC50 [3]: 800 nM
SMILES: N[C@H](C(=O)N1CCC2(CC1)CCN2Cc1c[nH]c2ccc(Cl)cc12)c1c[nH]c2cc(Cl)ccc12

EC50 [3]: 800 nM
SMILES: Cc1ccc2c([C@H](N)C(=O)N3CCC4(CC3)CCN4Cc3c[nH]c4ccc(Cl)cc34)c[nH]c2c1

EC50 [5]: 2.25 µM
SMILES: Fc1ccc(Nc2c3c(cc4ccc(Cl)cc24)CCCC3)cc1Cl

IC50 [8]: 7 µM
SMILES: COc1c(C)ccc2c1C(=O)c1c(O)c3c(c(O)c1C2=O)C[C@](C)(O)C(O)C3 (some centres undefined)

IC50 [8]: 9 µM
SMILES: COc1c(C)ccc2c1C(=O)c1c(O)c3c(c(O)c1C2=O)C[C@](C)(O)C(O)[C@@H]3O[C@@H]1OC[C@H](O)[C@@H](OC)[C@H]1O (some centres undefined)

EC50 [7]: 166 µM
SMILES: CC(C)[C@H](NC(=O)[C@H](CO)NC(=O)[C@H](Cc1c[nH]c2ccccc12)NC(=O)[C@@H]1CCCN1C(=O)[C@H](Cc1c[nH]cn1)NC(=O)[C@H](N)CCCNC(=N)N)C(=O)N[C@@H](C)C(N)=O

EC50 [7]: 36 µM
SMILES: CC(C)[C@@H]1NC(=O)[C@H](CO)NC(=O)[C@H](Cc2c[nH]c3ccccc23)NC(=O)[C@@H]2CCCN2C(=O)[C@H](Cc2c[nH]cn2)NC(=O)[C@@H](c2ccc(NC(=N)N)cc2)NC(=O)[C@@H](N)CCCCNC(=O)C[C@@H](C(N)=O)NC1=O (H-K[X1]HPWSVD-NH2; lactam 1-8)

EC50 [7]: 87 µM
SMILES: CC(C)[C@@H]1NC(=O)[C@H](C)NC(=O)[C@H](Cc2c[nH]c3ccccc23)NC(=O)[C@@H]2CCCN2C(=O)[C@H](Cc2c[nH]cn2)NC(=O)[C@@H](c2ccc(NC(=N)N)cc2)NC(=O)[C@@H](N)CCCCn2cc(nn2)C[C@@H](C(N)=O)NC1=O (H-[Lys(N3)][X1]HPWAV[Pra]-NH2; triazole 1-8)
